Laboratory results from PMC3749181, “Rapid Identification of Antifungal Compounds against Exserohilum rostratum Using High Throughput Drug Repurposing Screens” (PLoS ONE, 2013).
Read-outs that look alike come from different tables or passages of the source.

Legend:
[1] = test system: SH-SY5Y cells; experiment: SH-SY5Y cytotoxicity counter-screen (ATP content assay); type: cell-based, Human; conditions: for SH-SY5Y % M. Res. / SH-SY5Y IC50: Table S1; for SH-SY5Y % M. Res.: Inact. = no significant activity at 46 µM; for SH-SY5Y IC50: Inact. = no significant activity at the highest compound concentration (46 µM); for SH-SY5Y % Max. Resp.: Table 2, SH-SY5Y, inact. = no significant activity at 46 µM
Experimental: Human neuroblastoma SH-SY5Y cell line (Catalog No. CRL-2266) was purchased from ATCC (Manassas, VA). SH-SY5Y cell line was cultured in 175-cm^2 tissue culture flasks (Costar, Cambridge, MA) with 30 ml of growth medium at 37°C in a 5% CO2 humidified atmosphere. Growth medium was made with Dulbecco's Modified Eagle Medium: Nutrient Mixture F-12 with 10% fetal bovine serum (FBS). Growth medium was replaced every other day and cells were passed at 75% confluence.
(§1) The ATPLite assay kit, consisting of luciferase/luciferin and detergent, was used to quantitate cellular ATP levels as a marker for cell viability (Table 1). For assay development, hyphal fragments or conidia in PBS were plated in a seeding density of 3,750, 7,500 and 15,000 cellular particles/well with a final volume of 5 µl/well using the Multidrop-Combi dispenser in white 1536-well plates. Conidia or hyphae fragments were incubated for 24 h at 37°C in a 5% CO2 humidified atmosphere. ATPLite detection reagents were added at 4 µl/well. The assay plates were incubated at room temperature for 15 minutes before reading luminescence intensity on a ViewLux plate reader (Perkin Elmer, Waltham, MA). Conidia suspended in RPMI medium were inoculated at concentrations of 62.5, 125 and 250 conidia/well with a final volume of 5 µl/well in white 1536-well plates. The conidia assay was developed and optimized in the same way as the hyphal assay.
Two small known compound libraries including the LOPAC (1280 compounds) and approved drugs (4096 compounds) were screened in parallel using the above optimized assays for hyphae and conidia in 1536-well plates (Fig. 4). […] A mammalian SH-SY5Y cell line was used in parallel as a counter-screen with the same ATP content assay kit to assess the specificity of these compounds for E. rostratum.

[2] = test system: E. rostratum hyphal fragments; experiment: hyphal fragment fungicidal ATP content assay (PBS, 1536-well); type: cell-based, Exserohilum rostratum; conditions: for Hyphae % M. Res. / Emax / Hyphae % Max. Resp.: 46 µM Amphotericin B = 100%; for IC50: read-out: Hyphae IC50
Experimental: (§2) Conidia and hyphae of E. rostratum were obtained as described by Richard et al., with the following modifications. Briefly, conidia were harvested from Potato Dextrose Agar (PDA) cultured media with 0.05% Tween 80, and the conidial suspension was filtered using a Cell Strainer (100 µm, BD Falcon REF 352340). After centrifugation at 700g for 10 min, the suspension was decanted and conidia were resuspended at 1×10^5 per ml in RPMI and counted in a hemocytometer. Hyphae were harvested from yeast extract peptone dextrose (YPD) culture media with 0.05% Tween 80. Hyphal fragments were sized by vortexing 15 sec twice with 0.4 mm glassbeads, and the hyphae suspension was filtered by cheese cloth twice. […] To normalize concentrations of hyphal fragments for batch to batch consistency, carbohydrate analysis was performed by a phenol-sulfuric acid method as previously described. The final stock concentration of hyphae was adjusted to 1.0 (OD490) per 100 µl.
as §1
(§3) The LOPAC library (Sigma-Aldrich) has been extensively used for HTS assay validations, [18]. The NIH Chemical Genomics Center Pharmaceutical (NPC) collection was constructed in-house through a combined effort of compound purchasing and custom synthesis and recently expanded to 4096 compounds. […] 2.5 µl/well PBS was dispensed into 1536-well plates using a Multidrop-Combi dispenser. Compound in DMSO solution was transferred in a volume of 23 nl/well using a NX-TR pintool station (WAKO Scientific Solutions, San Diego, CA). This additional PBS step for compound addition was designed to prevent the potential fungal contamination of compound libraries. The hyphal fragments in PBS were then added at 2.5 µl/well for a final seeding density of 15,000 hyphal fragments/well using the Multidrop-Combi dispenser. The final compound concentration was 46 µM in the primary screen. The assay plates were incubated for 24 h at 30°C before the detection of cellular viability with the ATP content assay. Screen of conidia was performed in a similar way except that PBS was replaced with RPMI medium and conidia were plated for a final seeding density of 250 conidia/well.
(§4) The primary screen data and curve fitting were analyzed using software developed internally at the NIH Chemical Genomics Center (NCGC). Total signals for cellular viability (100% cellular viability) were calculated from the wells with DMSO solvent and the complete cell killing (0% cellular viability) was calculated from 46 µM amphotericin B treated wells. […] All values were expressed as the mean +/− SD (n≥3).

[3] = test system: E. rostratum conidia; experiment: conidia growth inhibition ATP content assay (RPMI, 1536-well); type: cell-based, Exserohilum rostratum; conditions: for IC50: read-out: Conidia IC50
Experimental: as §2, §1, §3, §4

[4] = Table S1, Inact. = no significant activity in the primary screen
[5] = Table S1, 46 µM Amphotericin B = 100%, Inact. = no significant activity at 46 µM
[6] = Table S1, Inact. = no significant activity at the highest compound concentration (46 µM)
[7] = Exserohilum rostratum, Table S1, Inact. = no significant activity in the primary screen, read-out: Hyphae % M. Res.
[8] = Exserohilum rostratum, Table S1, 46 µM Amphotericin B = 100%, Inact. = no significant activity at 46 µM, read-out: Conidia % M. Res.
[9] = Exserohilum rostratum, Table 2, inact. = no significant activity in the primary screen, read-out: Hyphae % Max. Resp.
[10] = Exserohilum rostratum, Table 2, 24 h, inact. = no significant activity in the primary screen
[11] = Table 2, 46 µM Amphotericin B = 100%, inact. = no significant activity at 46 µM
[12] = Table 2, 24 h, inact. = no significant activity at the highest compound concentration (46 µM)
[13] = Table 2, inact. = no significant activity in the primary screen
[14] = Table 2, 24 h, inact. = no significant activity in the primary screen
[15] = Exserohilum rostratum, Table 2, 46 µM Amphotericin B = 100%, inact. = no significant activity at 46 µM, read-out: Conidia % Max. Resp.
[16] = Exserohilum rostratum, 24 h, Table 2, 24 h, inact. = no significant activity at the highest compound concentration (46 µM)

Row | Compound | SH-SY5Y % M. Res. ([1]; 46 µM Amphotericin B = 100%) | SH-SY5Y IC50 [1] | Hyphae % M. Res. [2, 4] | Hyphae IC50 [2, 4] | Conidia % M. Res. [3, 5] | Conidia IC50 [3, 6] | SH-SY5Y % Max. Resp. ([1]; 46 µM Amphotericin B = 100%) | SH-SY5Y % Max. Resp. [1] | Hyphae % Max. Resp. [2, 13] | Emax [3, 15] | further results
1 | Cc1ccc(/C=N/n2c(-c3ccccc3)csc2=S)cc1 [Fezatione] | Inact. | Inact. | Inact. | Inact. | Inact. | Inact. |  |  |  |  | 
2 | Clc1ccc(COC(Cn2ccnc2)c2ccc(Cl)cc2Cl)cc1 (stereo not drawn) [Econazole nitrate] | Inact. |  |  |  |  |  |  |  |  |  | Emax [2, 7]: 77%; Emax [3, 8]: 64%
3 | Sc1nc2ccccc2s1 [2-Mercaptobenzothiazole] | Inact. | Inact. | Inact. | Inact. | Inact. | Inact. |  |  |  |  | 
4 | O=C1C2CC=CCC2C(=O)N1SC(Cl)(Cl)Cl (stereo not drawn) [Captan] |  |  |  |  |  |  | 100% | 18.6% |  |  | Emax [2, 9]: 82%; IC50 [2, 10]: 1170 nM; Conidia % Max. Resp. [3, 11]: inact.; Conidia IC50 [3, 12]: inact.
5 | CCCCCCCCCC(=O)NO [Decanohydroxamic acid] | Inact. | Inact. | Inact. | Inact. | Inact. | Inact. |  |  |  |  | 
6 | CC1(C)CCC(NC(=O)[C@@H](N)CCC(=O)O)CC1 [Neboglamine] | Inact. | Inact. | Inact. | Inact. | Inact. | Inact. |  |  |  |  | 
7 | O=P(O)(O)OC(Cn1cncn1)(Cn1cncn1)c1ccc(F)cc1F [Fosfluconazole] | Inact. | Inact. | Inact. | Inact. | Inact. | Inact. |  |  |  |  | 
8 | CCCCCCOc1ccccc1C(N)=O [Exalamide] | Inact. | Inact. | Inact. | Inact. | Inact. | Inact. |  |  |  |  | 
9 | CNc1ccc2oc(C[C@H]3O[C@@]4(CC[C@H]3C)O[C@H]([C@H](C)C(=O)c3ccc[nH]3)[C@H](C)C[C@H]4C)nc2c1C(=O)O [Calcimycin] |  |  |  |  |  |  | 94% | 3.95% | inact. | 51% | Hyphae IC50 [2, 14]: inact.; IC50 ([3]; Exserohilum rostratum, 24 h): 735 nM
10 | Oc1c(Br)cc(Br)c2cccnc12 [Broxyquinoline] |  |  |  |  |  |  | 100% | 58.9% |  | 98% | Emax [2, 9]: 96%; IC50 [2, 10]: 4510 nM; IC50 [3, 16]: 1600 nM
11 | CO/C=C(/C(=O)OC)c1ccccc1Oc1cc(Oc2ccccc2C#N)ncn1 [Azoxystrobin] |  |  |  |  |  |  | inact. | inact. | 81% |  | IC50 [2, 14]: 198 nM; Conidia % Max. Resp. [3, 11]: 83%; IC50 [3, 12]: 304 nM
12 | O=C1[O][Pt]2([NH][C@@H]3CCCC[C@H]3[NH]2)[O]C1=O [Oxaliplatin] |  |  |  |  |  |  | inact. | inact. | 76% |  | IC50 [2, 14]: 935 nM; Conidia % Max. Resp. [3, 11]: 95%; IC50 [3]: 4950 nM
13 | CCC(C)(C)c1ccc(CC(C)CN2C[C@@H](C)O[C@@H](C)C2)cc1 (stereo partly drawn) [Amorolfine] |  |  |  |  |  |  | inact. | inact. |  | 102% | Emax [2, 9]: 81%; IC50 [2, 10]: 4510 nM; IC50 [3, 16]: 7860 nM
14 | Oc1c(Cl)cc(Cl)c(Cl)c1Cc1c(O)c(Cl)cc(Cl)c1Cl [Hexachlorophene] |  |  |  |  |  |  | inact. | inact. | inact. |  | Hyphae IC50 [2, 14]: inact.; IC50 ([3]; Exserohilum rostratum, 24 h): 3970 nM; Emax ([3]; Exserohilum rostratum, read-out: Conidia % Max. Resp.): 109%
15 | CC(=O)N1CCN(c2ccc(OCC3COC(Cn4ccnc4)(c4ccc(Cl)cc4Cl)O3)cc2)CC1 (stereo not drawn) [Ketoconazole] | Inact. | Inact. |  |  |  |  | inact. | inact. |  | 101% | Emax [2, 9]: 74%; IC50 [2, 10]: 2380 nM; Emax [2, 7]: 74%; IC50 [3, 16]: 3470 nM; Emax [3, 8]: 101%
16 | Oc1c(I)cc(I)c2cccnc12 [Iodoquinol] |  |  |  |  |  |  | 58% | 26.3% | inact. | 99% | Hyphae IC50 [2, 14]: inact.; IC50 [3, 16]: 2750 nM
17 | C[CH2][Hg][S]c1ccccc1C(=O)[O-].[Na+] [Thimerosal] |  |  |  |  |  |  | 96% | 2.63% | inact. |  | Hyphae IC50 [2, 14]: inact.; Conidia % Max. Resp. [3, 11]: 102%; IC50 [3, 12]: 139 nM
18 | Mepartricin | 38% |  | Inact. | Inact. | 80% |  |  |  |  |  | IC50 [1]: 37200 nM
19 | Nc1[nH]c(=O)ncc1F [Flucytosine] | Inact. | Inact. | Inact. | Inact. | Inact. | Inact. |  |  |  |  | 
20 | Cc1cc(O)c2c(c1)O[C@@]1(C)CC[C@H]3C(C)(C)CCC[C@]34CO[C@@H]2[C@H]41 [Siccanin] | Inact. | Inact. | Inact. | Inact. | Inact. | Inact. |  |  |  |  | 
21 | Oc1c(I)cc(Cl)c2cccnc12 [Clioquinol] |  |  |  |  |  |  | 60% | 37.2% | inact. | 103% | Hyphae IC50 [2, 14]: inact.; IC50 [3, 16]: 975 nM
22 | Cc1ccc2c(Br)cc(Br)c(O)c2n1 [Broquinaldol] |  |  |  |  |  |  | inact. | inact. | inact. | 101% | Hyphae IC50 [2, 14]: inact.; IC50 [3, 16]: 7750 nM
